Assay results taken from patent US20100216802A1, “PTERIDINE DERIVATIVES AS POLO-LIKE KINASE INHIBITORS USEFUL IN THE TREATMENT OF CANCER” (CHROMA THERAPEUTICS LTD., priority 2006, published 2010).

The compounds below were run against T1, PLK1 (Homo sapiens, UniProt P53350) (assay: PLK1 enzyme assay (Z'-LYTE, Invitrogen)). Conditions: ATP at or close to Km; read-out: Inhibitor Activity vs PLK1.
T1 construct: purchased Invitrogen (Paisley, UK)
Format: biochemical
Procedure: The ability of compounds to inhibit PLK-1 kinase activity was measured in an assay performed by Invitrogen (Paisley, UK). The Z′-LYTE™ biochemical assay employs a fluorescence-based, coupled-enzyme format and is based on the differential sensitivity of phosphorylated and non-phosphorylated peptides to proteolytic cleavage. The peptide substrate is labelled with two fluorophores—one at each end—that make up a FRET pair. In the primary reaction, the kinase transfers the gamma-phosphate of ATP to a single serine or threonine residue in a synthetic FRET-peptide. In the secondary reaction, a site-specific protease recognizes and cleaves non-phosphorylated FRET-peptides. Phosphorylation of FRET-peptides suppresses cleavage by the Development Reagent. Cleavage disrupts FRET between the donor (i.e., coumarin) and acceptor (i.e., fluorescein) fluorophores on the FRET-peptide, whereas uncleaved, phosphorylated FRET-peptides maintain FRET. A […] method, which calculates the ratio (the Emission Ratio) of donor emission to acceptor emission after excitation of the donor fluorophore at 400 nm, is used to quantitate reaction progress.
The assay is performed at an ATP concentration at, or close to, the Km. After the 60 minute Kinase Reaction incubation at RT, 5 μL of a 1:8 dilution of Development Reagent is added. The assay plate is incubated for a further 60 minutes at RT and read on a fluorescence plate reader.
Duplicate data points are generated from a ⅓ log dilution series of a stock solution of test compound in DMSO. Nine dilutions steps are made from a top concentration of 10 μM, and a ‘no compound’ blank is included. Data is collected and analysed using XLfit software from IDBS.

T1 sequence (P53350 whole entry): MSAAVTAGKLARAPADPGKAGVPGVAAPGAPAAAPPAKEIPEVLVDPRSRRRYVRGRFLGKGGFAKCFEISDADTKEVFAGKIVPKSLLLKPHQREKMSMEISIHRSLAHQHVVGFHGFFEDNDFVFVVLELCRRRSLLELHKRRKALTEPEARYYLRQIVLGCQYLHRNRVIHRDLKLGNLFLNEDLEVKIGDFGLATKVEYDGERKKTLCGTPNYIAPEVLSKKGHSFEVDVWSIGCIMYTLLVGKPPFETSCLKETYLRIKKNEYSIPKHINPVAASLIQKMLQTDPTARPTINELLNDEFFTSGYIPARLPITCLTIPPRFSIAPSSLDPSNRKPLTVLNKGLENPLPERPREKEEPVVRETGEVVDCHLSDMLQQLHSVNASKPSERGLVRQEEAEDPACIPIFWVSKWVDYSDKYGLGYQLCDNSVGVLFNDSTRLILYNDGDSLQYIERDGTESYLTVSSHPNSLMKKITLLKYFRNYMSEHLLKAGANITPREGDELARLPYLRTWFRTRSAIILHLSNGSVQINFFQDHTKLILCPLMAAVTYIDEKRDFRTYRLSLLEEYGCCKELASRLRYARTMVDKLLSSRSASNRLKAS

| IC50 [nM] | Compound |
| --- | --- |
| < 100 | CC[C@@H]1C(=O)N(C)c2cnc(Nc3ccc(C(=O)NC4CCN(CC[C@H](N)C(=O)O)C4)cc3OC)nc2N1C1CCCC1 (stereo partly drawn) [Example 44, (2S)-2-amino-4-{3-[(4-{[(7R)-8-Cyclopentyl-7-ethyl-5-methyl-6-oxo-5,6,7,8-tetrahydropteridin-2-yl]amino}-3-methoxybenzoyl)amino]pyrrolidin-1-yl}butanoic acid] |
| < 100 | CC[C@@H]1C(=O)N(C)c2cnc(Nc3ccc(/C=C/C[C@H](N)C(=O)O)cc3)nc2N1C1CCCC1 [Example 35, (2S,4E)-2-Amino-5-(4-{[(7R)-8-cyclopentyl-7-ethyl-5-methyl-6-oxo-5,6,7,8-tetrahydropteridin-2-yl]amino}phenyl)pent-4-enoic acid] |
| < 100 | CCC1C(=O)N(C)c2cnc(Nc3ccc(C(=O)NCCC(N)C(=O)O)cc3OC)nc2N1C1CCCC1 [Example 38, (2S)-2-Amino-4-[(4-{[(7R)-8-cyclopentyl-7-ethyl-5-methyl-6-oxo-5,6,7,8-tetrahydropteridin-2-yl]amino}-3-methoxybenzoyl)amino]butananoic acid] |
| < 100 | CC[C@@H]1C(=O)N(C)c2cnc(Nc3ccc(C(=O)NCCCC[C@H](N)C(=O)O)cc3OC)nc2N1C1CCCC1 [Example 40, N^6-(4-{[(7R)-8-cyclopentyl-7-ethyl-5-methyl-6-oxo-5,6,7,8-tetrahydropteridin-2-yl]amino}-3-methoxybenzoyl)lysine] |
| < 100 | CC[C@@H]1C(=O)N(C)c2cnc(Nc3ccc(C(=O)N4CCNC(C(=O)O)C4)cc3OC)nc2N1C1CCCC1 (stereo partly drawn) [Example 42, 4-(4-{[(7R)-8-Cyclopentyl-7-ethyl-5-methyl-6-oxo-5,6,7,8-tetrahydropteridin-2-yl]amino}-3-methoxybenzoyl)piperazine-2-carboxylic acid] |
| < 100 | CC[C@@H]1C(=O)N(C)c2cnc(Nc3ccc(C(=O)NCc4ccc(OCC[C@H](N)C(=O)O)cc4)cc3OC)nc2N1C1CCCC1 [Example 41, O-(4-{[(4-{[(7R)-8-Cyclopentyl-7-ethyl-5-methyl-6-oxo-5,6,7,8-tetrahydropteridin-2-yl]amino}-3-methoxybenzoyl)amino]methyl}phenyl)-L-homoserine] |
| < 100 | CC[C@@H]1C(=O)N(C)c2cnc(Nc3ccc(C(=O)NC4CCN(CC[C@H](N)C(=O)O)CC4)cc3C)nc2N1C1CCCC1 [Example 48, (2S)-2-Amino-4-{4-[(4-{[(7R)-8-cyclopentyl-7-ethyl-5-methyl-6-oxo-5,6,7,8-tetra hydropteridin-2-yl]amino}-3-methylbenzoyl)amino]piperidin-1-yl}butanoic acid] |
| < 100 | CC[C@@H]1C(=O)N(C)c2cnc(Nc3ccc(C(=O)N[C@@H]4CN[C@H](C(=O)O)C4)cc3OC)nc2N1C1CCCC1 [Example 39, (4S)-4-[(4-{[(7R)-8-Cyclopentyl-7-ethyl-5-methyl-6-oxo-5,6,7,8-tetrahydropteridin-2-yl]amino}-3-methoxybenzoyl)amino]-L-proline] |
| < 100 | CC[C@@H]1C(=O)N(C)c2cnc(Nc3ccc(C(=O)NC4CCN(CC[C@H](N)C(=O)O[C@@H]5C[C@H](C)CC[C@H]5C(C)C)CC4)cc3OC)nc2N1C1CCCC1 [Example 32] |
| < 100 | CC[C@@H]1C(=O)N(C)c2cnc(Nc3ccc(C(=O)NC4CCN(CCC[C@H](N)C(=O)O)CC4)cc3OC)nc2N1C1CCCC1 [Example 46, 5-{4-[(4-{[(7R)-8-Cyclopentyl-7-ethyl-5-methyl-6-oxo-5,6,7,8-tetrahydropteridin-2-yl]amino}-3-methoxybenzoyl)amino]piperidin-1-yl}-L-norvaline] |
| < 100 | CC[C@@H]1C(=O)N(C)c2cnc(Nc3ccc(C(=O)NCCN4CCNC(C(=O)O)C4)cc3OC)nc2N1C1CCCC1 (stereo partly drawn) [Example 43, 4-{2-[(4-{[(7R)-8-Cyclopentyl-7-ethyl-5-methyl-6-oxo-5,6,7,8-tetrahydropteridin-2-yl]amino}-3-methoxybenzoyl)amino]ethyl}piperazine-2-carboxylic acid] |
| < 100 | CC[C@@H]1C(=O)N(C)c2cnc(Nc3ccc(C(=O)NC4CCN(CC[C@H](N)C(=O)O)CC4)cc3OC)nc2N1C1CCCC1 [Example 53, (2S)-2-amino-4-{4-[(4-{[(7R)-8-cyclopentyl-7-ethyl-5-methyl-6-oxo-5,6,7,8-tetrahydropteridin-2-yl]amino}-3-methoxybenzoyl)amino]piperidin-1-yl}butanoic acid] |
| < 100 | CC[C@@H]1C(=O)N(C)c2cnc(Nc3ccc(C(=O)NC4CCN(CCC[C@@H](N)C(=O)O)CC4)cc3OC)nc2N1C1CCCC1 [Example 47, 5-{4-[(4-{[(7R)-8-Cyclopentyl-7-ethyl-5-methyl-6-oxo-5,6,7,8-tetrahydropteridin-2-yl]amino}-3-methoxybenzoyl)amino]piperidin-1-yl}-D-norvaline] |
| < 100 | CC[C@@H]1C(=O)N(C)c2cnc(Nc3ccc(C(=O)NC4CCN(CC[C@@H](N)C(=O)O)CC4)cc3OC)nc2N1C1CCCC1 [Example 50, (2R)-2-Amino-4-{4-[(4-{[(7R)-8-cyclopentyl-7-ethyl-5-methyl-6-oxo-5,6,7,8-tetra hydropteridin-2-yl]amino}-3-methoxybenzoyl)amino]piperidin-1-yl}butanoic acid] |
| < 100 | CC[C@@H]1C(=O)N(C)c2cnc(Nc3ccc(C[C@H](N)C(=O)O)cc3)nc2N1C1CCCC1 [Example 34, 4-{[(7R)-8-Cyclopentyl-7-ethyl-5-methyl-6-oxo-5,6,7,8-tetrahydropteridin-2-yl]amino}-L-phenylalanine] |
| < 100 | CC[C@@H]1C(=O)N(C)c2cnc(Nc3ccc(C(=O)Nc4ccc(C[C@H](N)C(=O)O)cc4)cc3OC)nc2N1C1CCCC1 [Example 33] |
| < 100 | CC[C@@H]1C(=O)N(C)c2cnc(Nc3ccc(OCC[C@H](N)C(=O)O)cc3OC)nc2N1C1CCCC1 [Example 37, O-(4-{[(7R)-8-Cyclopentyl-7-ethyl-5-methyl-6-oxo-5,6,7,8-tetrahydropteridin-2-yl]amino}-3-methoxyphenyl)-L-homoserine] |
| < 100 | CC[C@@H]1C(=O)N(C)c2cnc(Nc3ccc(C(=O)N4CCNC(C(=O)O)C4)cc3OC)nc2N1C1CCCC1 (stereo partly drawn) [Example 52, 4-(4-{[(7R)-8-cyclopentyl-7-ethyl-5-methyl-6-oxo-5,6,7,8-tetrahydropteridin-2-yl]amino}-3-methoxbenzoyl)piperazine-2-carboxylic acid] |
| < 100 | CC[C@@H]1C(=O)N(C)c2cnc(Nc3ccc(OCC[C@H](N)C(=O)O)cc3)nc2N1C1CCCC1 [Example 36, O-(4-{[(7R)-8-Cyclopentyl-7-ethyl-5-methyl-6-oxo-5,6,7,8-tetrahydropteridin-2-yl]amino}phenyl)-L-homoserine] |
| < 100 | CC[C@@H]1C(=O)N(C)c2cnc(Nc3ccc(C(=O)NC4C5CN(CC[C@H](N)C(=O)O)CC54)cc3OC)nc2N1C1CCCC1 (stereo partly drawn) [Example 45, (2S)-2-Amino-4-{6-[(4-{[(7R)-8-cyclopentyl-7-ethyl-5-methyl-6-oxo-5,6,7,8-tetrahydropteridin-2-yl]amino}-3-methoxybenzoyl)amino]-3-azabicyclo[3.1.0]hex-3-yl} butanoic acid] |
| < 100 | CC[C@@H]1C(=O)N(C)c2cnc(Nc3ccc(C(=O)NC4CCN(CC[C@H](N)C(=O)O)CC4)cc3F)nc2N1C1CCCC1 [Example 49, (2S)-2-Amino-4-{4-[(4-{[(7R)-8-cyclopentyl-7-ethyl-5-methyl-6-oxo-5,6,7,8-tetra hydropteridin-2-yl]amino}-3-fluorobenzoyl)amino]piperidin-1-yl}butanoic acid] |

Same assay, conditions: acid of the ester; read-out: Inhibition of PLK (IC50, nM) acid

| IC50 [nM] | Compound |
| --- | --- |
| 6 | CC[C@@H]1C(=O)N(C)c2cnc(Nc3ccc(C(=O)NC4CCN(CC[C@H](N)C(=O)O)CC4)cc3OC)nc2N1C1CCCC1 [Example 53, (2S)-2-amino-4-{4-[(4-{[(7R)-8-cyclopentyl-7-ethyl-5-methyl-6-oxo-5,6,7,8-tetrahydropteridin-2-yl]amino}-3-methoxybenzoyl)amino]piperidin-1-yl}butanoic acid] |
